We go through five compounds from patent US12624039B2, “BTK inhibitors” (DIZAL (JIANGSU) PHARMACEUTICAL CO., LTD., priority 2020, dated 2026).

In series [1] the target is T1, Recombinant BTK wild type (BTK WT) (Homo sapiens, UniProt Q06187).
T1 construct: purchased Thermo fisher
Briefly: BTK WT HTRF kinase assay. It counts as biochemical. The settings on record: 30 min pre-incubation, 120 min reaction. Here is the method:
(§1) Recombinant BTK wild type (BTK WT) was purchased from Thermo fisher.
(§2) In brief, recombinant kinases were pre-incubated in the presence or absence of compound at room temperature for 30 minutes. The reaction was initiated by the addition of the ATP and substrate peptide which could be phosphorylated by kinases in the reaction. After 120 minutes incubation, the reaction was stopped by the addition of the detection reagent mix containing EDTA.
A general note: In TR-FRET formats the signal depends on donor and acceptor labels being close together.

Another series has as its target T2, Recombinant BTK(C481S) (Homo sapiens, UniProt Q06187, C481S).
T2 construct: purchased SignalChem
Briefly: BTK C481S HTRF kinase assay. It counts as biochemical. The settings on record: 30 min pre-incubation, 120 min reaction. The method, then:
[The procedure below names another variant; the source lists this variant under the same test.] as §1, §2

A short description of series [2]: In vitro rat hepatocytes clearance assay. The format is in vitro ADME. The method, then:
(§3) In Vitro Rat/Human Hepatocytes Clearance Assay
(§4) Rat hepatocytes in male gender and human hepatocytes in mixed gender were obtained from commercial vendors (e.g., BioreclamationIVT) and stored at −150° C. prior to use. 10 mM stock solutions of tested compounds were prepared in DMSO. Thawing medium and supplement incubation medium (serum-free) were placed in a 37° C. water bath for at least 15 minutes prior to use. Stock solutions were diluted to 100 μM by combining 198 μL acetonitrile and 2 μL of 10 mM stock solution.
(§5) Vials of cryopreserved hepatocytes were removed from storage, ensured that vials remain at cryogenic temperatures. The vials were thawed in a 37° C. water bath with gently shaking. Vials were kept in a water bath until all ice crystals had dissolved and were no longer visible. Vials were sprayed with 70% ethanol before being transferred to a biosafety cabinet. And then the contents were poured into the 50 mL thawing medium conical tube. Vials were centrifuged at 100 g for 10 minutes at room temperature. Thawing medium was aspirated and hepatocytes were resuspended with serum-free incubation medium to yield ^˜1.5×10^6 cells/mL.
(§6) Cell viability and density were counted using a Trypan Blue exclusion, and then cells were diluted with serum-free incubation medium to a working cell density of 1×10^6 viable cells/ml. A portion of the hepatocytes at 1×10^6 viable cells/mL was boiled for 10 min prior to adding to the plate as negative control to eliminate the enzymatic activity so that little or no substrate turnover should be observed. The inactivated hepatocytes were used to prepare negative samples, which were used to exclude the misleading factor that resulted from instability of chemical itself.
(§7) Aliquots of 247.5 μL hepatocytes were dispensed into each well of a 96-well non-coated plate. The plate was placed in the incubator on an orbital shaker for approximately 10 minutes. Aliquots of 2.5 μL of the 100 μM test compounds were added into respective wells of the non-coated 96-well plate to start the reaction. This assay was performed in duplicate. The plate was incubated in the incubator on an orbital shaker for the designed time points. 20 μL of contents were transferred and mixed with 6 volumes (120 μL) of cold acetonitrile with internal standard to terminate the reaction at time points of 5, 15, 30, 45, 60, 80 and 100 minutes. Samples were centrifuges for 20 minutes at 4000 g and aliquots of 100 μl of the supernatants were used for LC-MS/MS analysis for measurement of test compounds.
(§8) In vitro hepatocyte clearance was estimated based on determination of elimination half-life (T1/2) of compounds disappearance from their initial concentrations. Peak area ratios of each compound (test or control) to IS was calculated. Ln (% Control) versus Incubation Time (min) curve was plotted, and the slope of a linear fitting line was calculated. Drug elimination rate constant k (min-1), T1/2 (min), and in vitro intrinsic clearance CLint (μL/min/E6) was calculated according to the following equations: k=−slope T1/2=0.693/k CLint=k/Chep • Where Chep (cells×μL-1) is the cell concentration in the incubation system. Procedure for Log D Determination

Series [3] can be described thus: In vitro human hepatocytes clearance assay. The format is in vitro ADME. The method, then: as §3, §4, §5, §6, §7, §8
Series [4] in a line: Log D determination (octanol/phosphate buffer). It counts as physicochemical. As to conditions: 25° C. Here is the method: 10 μL of working solution of each cassette is placed in order into respective 96-well rack position (Log D plate). Add 500 μL of saturated octanol into each vial of the above cap-less Log D plate followed by the addition of 500 μL of saturated phosphate buffer. Seal with a moulded PTFE/SIL 96-Well Plate Cover.
The samples are centrifuged at 4,000 rpm at 25° C. for 30 minutes to separate the phases. Pipette and syringe are used to pipette about 100 μL from the octanol and buffer phases to a new 96-well plate, respectively.
5 μL of octanol sample is transferred to a new 96-well plate, followed by addition of 495 μL of a mixture of H2O and acetonitrile containing internal standard (1:1) as 100 fold octanol samples. Vortex for 5 minutes at 1,000 rpm.
50 μL of 100 fold samples are transferred to new 96-well plate, followed by addition of 450 μL of a mixture of H2O and acetonitrile containing internal standard (1:1) as 1,000 fold octanol samples. Vortex for 5 minutes at 1,000 rpm.
The 1,000 folds octanol samples are serially diluted into 10,000, 100,000 and 1,000,000 folds with a mixture of H2O and acetonitrile containing internal standard (1:1).
50 μL of buffer samples are transferred to new 96-well plate, followed by addition of 450 μL of a mixture of H2O and acetonitrile containing internal standard (1:1) as 10 folds buffer samples. Vortex for 5 minutes at 1,000 rpm.
The 10 folds buffer samples are serially diluted into 100, 1,000 and 10,000 folds with a mixture of H2O and acetonitrile containing internal standard (1:1). The samples are evaluated by LC/MS/MS analysis. All compounds are tested in singlicate.
All calculations are carried out using Microsoft Excel. The concentrations of test compound in octanol/buffer solution are evaluated by LC/MS/MS. Calculate the Log D value of the test compound as follows:
(§9) [formula] DF means the dilution factor. Procedure for Protein Binding Measurements in Human Plasma by Using Equilibrium Dialysis

Series [5] is described as follows: Protein binding in human plasma by equilibrium dialysis. The format is in vitro ADME. As to conditions: 18 hours at 37° C.; for hPPB (fu %): human plasma, 5 μM, fraction unbound; for fraction unbound at 18 h, 5 μM: human, plasma, pH 7.4, human plasma, read-out: hPPB (fu %). The method, then:
as §9
Add 597 μL of blank plasma into each vial of a new plastic plate or separate plastic tube by addition of 3 μL of the working solution of each cassette, vortex at 1,000 rpm for 5 minutes. The final percent volume of organic solvent is 0.5% and the final concentration for test compound is 5 μM. Immediately transfer 50 μL of the spiked plasma suspension to a 96-well plate to act as T=0 control sample. The samples are treated the same as the samples after incubation. Place all remaining spiked plasma in the incubator for the duration of the study.
Place inserts open end up into the wells of the base plate. Add 500 μL of phosphate buffer (pH 7.4) to the buffer chamber, which is indicated by the white ring. Add 300 μL of spiked plasma sample into the sample chamber, which is indicated by the red ring. Cover the unit with gas permeable lid and incubate for 18 hours at 37° C. at 300 rpm with 5% CO2 on an orbital shaker in the CO2 incubator. At the end of incubation, remove lid and pipette 50 μL of post-dialysis samples from both buffer and plasma chambers into separated 96-well plate for analysis, respectively.
At the same time, the remaining spiked plasma sample in the plastic plate or separate plastic tube is incubated for 18 hours at 37° C. with 5% CO2 in the CO2 incubator. At T=18 hours, transfer 50 μL of the original spiked plasma suspension to the 96-well plate for analysis.
Add 50 μL of Human plasma to the buffer samples, and an equal volume of PBS to the collected plasma samples. Vortex the plate at 1,000 rpm for 2 minutes and add 400 μL of acetonitrile containing an appropriate internal standard (IS) to precipitate protein and release compound. Vortex at 1,000 rpm for 10 minutes. Centrifuge for 30 minutes at 4,000 rpm. Transfer 250 μl of the supernatant to new 96-well plates and centrifuge again (4,000 rpm, 30 minutes). Then transfer 100 μL of the supernatant to new 96-well plates for analysis. Add 100 μL of distilled water to each sample and vortex for 5 minutes at 1,000 rpm for analysis by LC-MS/MS. All compounds are tested in singlicate at 5 μM in human plasma.
All calculations are carried out using Microsoft Excel.
Calculate the percentage of unbound, percentage of bound and recovery of test compound as follows: […]
On the technique in general: In equilibrium dialysis free small molecules cross a membrane that holds back macromolecules.

A further series in a line: Hu Mic Clint. The format is in vitro ADME, human. As to conditions: for microsomal CLint: human, microsomes.
A further series can be described thus: DMSO solubility. It counts as physicochemical.
The conditions of series [6]: phase I trial for multiple sclerosis (MS); cited from earlier work.

In brackets after ≈: the same amount, converted by molar mass. Read-outs that look alike come from different tables or passages of the source.

The term IC50 denotes the concentration that inhibits the measured activity by half. In general, logD refers to the decadic logarithm of the distribution of all forms, ionised or not, between an organic phase and buffer at a given pH. A lower logD goes with a more hydrophilic compound. For orientation: solubility means the dissolved amount per volume that the medium holds. Read a low solubility as little dissolved substance. In general, microsomal CLint refers to the capacity of the preparation to metabolise the compound, expressed as a volume cleared per time. Lower therefore signals slow turnover.

T1 sequence (Q06187 whole entry): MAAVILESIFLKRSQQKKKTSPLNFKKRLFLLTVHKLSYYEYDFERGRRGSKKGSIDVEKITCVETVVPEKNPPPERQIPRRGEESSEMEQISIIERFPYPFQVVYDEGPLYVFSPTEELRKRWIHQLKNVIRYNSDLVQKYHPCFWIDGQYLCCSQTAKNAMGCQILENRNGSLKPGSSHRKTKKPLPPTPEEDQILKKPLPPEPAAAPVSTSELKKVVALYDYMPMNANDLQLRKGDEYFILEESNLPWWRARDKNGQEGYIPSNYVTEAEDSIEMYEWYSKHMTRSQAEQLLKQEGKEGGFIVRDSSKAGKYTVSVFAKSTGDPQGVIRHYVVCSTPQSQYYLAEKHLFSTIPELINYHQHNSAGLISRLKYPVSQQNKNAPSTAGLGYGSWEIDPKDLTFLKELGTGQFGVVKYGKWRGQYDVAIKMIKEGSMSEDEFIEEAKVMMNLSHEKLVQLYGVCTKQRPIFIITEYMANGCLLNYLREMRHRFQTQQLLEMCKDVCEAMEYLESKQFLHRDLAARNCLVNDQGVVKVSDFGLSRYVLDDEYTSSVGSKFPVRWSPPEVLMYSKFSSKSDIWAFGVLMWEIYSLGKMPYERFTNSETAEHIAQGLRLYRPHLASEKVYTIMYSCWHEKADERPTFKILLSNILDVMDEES
T2 sequence (Q06187 whole entry C481S): as the sequence (Q06187 whole entry) above, with C481S counted along it

With `Nc1ncnn2c(C3CCC(CO)OC3)nc(-c3ccc(Oc4cccc(F)c4F)cc3)c12` (centres unmarked) [Compound 15, (5-(4-amino-5-(4-(2,3-difluorophenoxy)phenyl)imidazo[5,1-f][1,2,4]triazin-7-yl)tetrahydro-2H-pyran-2-yl)methanol], the IC50 in series [1] amounted to 6.72 nM; at Recombinant BTK(C481S), 6.11 nM. For the same compound, the “Rat Hep Clint” value in series [2] turned out to be 7.9 μL/min/10∧6 cells. Also, the “Human Hep Clint” value in series [3] was found to be 2.1 μL/min/10∧6 cells. In series [4], the logD is on record as 2.98. Further, the “hPPB (fu %)” value in series [5] is reported as 6.4%. The “Hu Mic Clint” value in the series “Hu Mic Clint” was less than 3 µL/min/mg. Moreover, the solubility in “DMSO solubility” came out at 84.0 µM (≈ 38.1 µg/mL).

With `C=CC(=O)N1CCC[C@@H](n2c(=O)n(-c3ccc(Oc4ccccc4)cc3)c3c(N)nccc32)C1` [PRN2246], in [6], the tolerability result was “well tolerated”.

Regarding `Nc1ncnn2c(C3CCC(CO)OC3)nc(-c3ccc(Oc4ccccc4)c(F)c3F)c12` (centres unmarked) [Compound 13, (5-(4-amino-5-(2,3-difluoro-4-phenoxyphenyl)imidazo[5,1-f][1,2,4]triazin-7-yl)tetrahydro-2H-pyran-2-yl)methanol], the IC50 amounted to 3.29 nM in series [1] and 3.81 nM on Recombinant BTK(C481S). In series [2], the “Rat Hep Clint” value stood at 21.4 μL/min/10∧6 cells. Besides, the “Human Hep Clint” value in [3] stood at 5.9 μL/min/10∧6 cells. In addition, the logD in series [4] was found to be 3.21. The “hPPB (fu %)” value in series [5] is 8.4%. Moreover, the “Hu Mic Clint” value in “Hu Mic Clint” was less than 3 µL/min/mg. The compound further showed a solubility in “DMSO solubility” of 113 µM (≈ 51.2 µg/mL).

Regarding `Nc1nccn2c1c(-c1ccc(Oc3ccccc3)cc1)nc2[C@H]1CC[C@H](CO)CC1` [reference compound], in series [2], the “Rat Hep Clint” value was 119.3 μL/min/10∧6 cells. Further, the “Human Hep Clint” value in [3] turned out to be 92.9 μL/min/10∧6 cells. Moreover, the logD at 2 h in series [4] was found to be 4.16. For the same compound, the fraction unbound at 18 h, 5 μM in series [5] worked out at 0.0289. For the same compound, in “Hu Mic Clint”, the microsomal CLint was determined as 141 µL/min/mg. Besides, the solubility in “DMSO solubility” (kinetic from dmso stock) was less than 1.6 µM.

Turning to `Nc1ncnn2c1c(-c1ccc(Oc3ccccc3)cc1F)nc2[C@H]1CC[C@H](CO)CC1` [reference compound], the “Rat Hep Clint” value in [2] worked out at 254.9 μL/min/10∧6 cells. The “Human Hep Clint” value in series [3] was determined as 123.6 μL/min/10∧6 cells. In series [4], this compound displayed a logD at 2 h of 3.98. Moreover, the fraction unbound at 18 h, 5 μM in [5] was found to be 0.0257. This compound gave a microsomal CLint in the series “Hu Mic Clint” of 19.3 µL/min/mg. The solubility in the series “DMSO solubility” (kinetic from dmso stock) is less than 1.6 µM.
